In the assay the target is T1, Src substrate cortactin (CTTN) (Homo sapiens, UniProt Q14247).
T1 construct: endogenous in cells; host or cells: MCF7
The assay can be described thus: In situ competitive profiling in live MCF7 cells (LFQ): CTTN. The conditions noted are these: protein CTTN, 4 h, then 10 µM 24c, n=4. It counts as cell-based. An excerpt:
In our efforts to determine the direct molecular targets of deoxyelephantopin we first performed a gel-based competitive in situ proteomic profiling assay[41] […] While the greater conformational flexibility of probe 24c could potentially lead to more promiscuous target engagement relatively to deoxyelephantopin, it was favoured based on the fact that an alkyne moiety appended to the rigid scaffold of deoxyelephantopin may hinder some of its interactions. MCF7 cells were pretreated with various concentrations of deoxyelephantopin for 4 h, harvested, lysed and the lysates were treated with the fluorogenic probe 24c-Cy3 (10 μM; Supplementary Fig. 10). […] Furthermore, cells were pretreated with 20 μM concentration of deoxyelephantopin or 24c and the proteomic profiles were compared (Fig. 6b, Supplementary Fig. 11). Multiple bands were detected that were equally competed by both DEP and 24c, thus again confirming that 24c can be used as an acceptable clickable analogue of deoxyelephantopin in pulldown assays. Having established the optimal labelling conditions by SDS–PAGE, we next carried out a mass spectrometry-based competitive profiling assay[42] coupled with the method of stable isotope labelling of amino acids in culture (SILAC)[43]. […]
Figure 6 Proteome-wide identification of deoxyelephantopin targets. […] Quantification was performed using label-free quantification (LFQ) method (n=4). […]

Consider 1 compound from publication PMC4992173, “Divergent synthesis and identification of the cellular targets of deoxyelephantopins” (Nature Communications, 2016).

T1 sequence (Q14247 whole entry): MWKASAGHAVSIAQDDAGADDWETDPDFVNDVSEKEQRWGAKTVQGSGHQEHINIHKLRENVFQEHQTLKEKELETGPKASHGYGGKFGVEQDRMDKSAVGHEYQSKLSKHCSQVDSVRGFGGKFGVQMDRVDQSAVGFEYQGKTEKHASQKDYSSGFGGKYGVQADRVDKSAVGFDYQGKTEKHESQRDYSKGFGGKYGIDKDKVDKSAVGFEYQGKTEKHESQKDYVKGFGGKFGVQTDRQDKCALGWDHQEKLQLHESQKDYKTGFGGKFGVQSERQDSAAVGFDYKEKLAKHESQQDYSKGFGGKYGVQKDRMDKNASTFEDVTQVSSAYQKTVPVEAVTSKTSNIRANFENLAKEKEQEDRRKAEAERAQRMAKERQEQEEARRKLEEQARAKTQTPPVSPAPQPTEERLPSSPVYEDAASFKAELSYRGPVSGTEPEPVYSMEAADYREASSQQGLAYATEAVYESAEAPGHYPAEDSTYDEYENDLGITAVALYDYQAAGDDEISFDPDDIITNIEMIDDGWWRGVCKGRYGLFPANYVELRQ

On to `C=C(C)C(=O)O[C@H]1CC2=C[C@@H](C/C(C)=C/[C@H]3OC(=O)C(=C)[C@H]13)OC2=O` [deoxyelephantopin], for which the “LFQ ratio 20 µM Deoxyelephantopin/DMSO with 24c” value is reported as 0.22.
